Laboratory results as given in publication PMC6345595 (American journal of clinical oncology, 2019).
Values belong to the compound of their own block, whether it stands above or below them.

What was measured:
[1] = Plasma pharmacokinetics of dovitinib, gemcitabine and capecitabine by LC/MS/MS; format: in vivo, human; settings: for half-life: human, oral, 300 mg, median half-life (T1/2), dovitinib 300 mg
basic FGF (bFGF) = experiment: Plasma bFGF Quantikine ELISA; format: in vivo, human; settings: 5 patients, baseline vs after 19 days of dovitinib 300 mg
[2] = target: fibroblast growth factor receptors (FGFRs); settings: read-out: IC50 against FGFRs; cited from earlier work
[3] = human, in vivo
VEGF = experiment: Plasma VEGF Quantikine ELISA; format: in vivo, human; settings: 5 patients, baseline vs after 19 days of dovitinib 300 mg
FGF23 = experiment: Plasma FGF23 sandwich ELISA; format: in vivo, human; settings: out of 5 patients with paired samples; during the first cycle; dovitinib 300 mg daily 5 days on and 2 days off with gemcitabine and capecitabine
CYP 1A1/2 = settings: cited from earlier work
[4] = AUC 0–8 hours, Day 1, capecitabine 1300 mg/m^2 total daily oral dose divided twice a day, concurrently with dovitinib 300 mg and gemcitabine, N=7
[5] = Day 1, capecitabine 1300 mg/m^2 total daily oral dose divided twice a day, concurrently with dovitinib 300 mg and gemcitabine, plasma, N=5
[6] = Day 1, capecitabine 1300 mg/m^2 total daily oral dose divided twice a day, concurrently with dovitinib 300 mg and gemcitabine, plasma, N=7
[7] = AUC 0–7.5 hours, Day 1, gemcitabine 1000 mg/m^2 intravenously, concurrently with dovitinib 300 mg and capecitabine, N=7

AUC Max [1, 4]: 14439 ng·h/mL
AUC Min [1, 4]: 488 ng·h/mL
T1/2 Max [1, 5]: 4.07 h
T1/2 Min [1, 5]: 0.68 h
Cmax Max [1, 6]: 30300 ng/mL
Cmax Min [1, 6]: 98.8 ng/mL
SMILES: CCCCCOC(=O)Nc1nc(=O)n([C@@H]2O[C@H](C)[C@@H](O)[C@H]2O)cc1F [capecitabine]

SMILES: CN1CCN(c2ccc3nc(-c4c(N)c5c(F)cccc5[nH]c4=O)[nH]c3c2)CC1 [dovitinib]
changes of bFGF plasma level (basic FGF (bFGF)): no observable trend
IC50 [2]: < 10 nM
patients with dose limiting toxicity (grade 3 colitis) ([3]; 1 cycle): 1
recommended dose for expansion / RP2D ([3]; po, 21 day): 300 mg
changes of VEGF plasma level (VEGF): no observable trend
difference in dovitinib level between Day1 and 19 (autoinduction) ([1]; 300 mg daily dose on 5 days on and 2 days off schedule): did not observe significant difference
accumulation following 3 weeks of dosing ([1]; dovitinib 300 mg dose, Day 1 vs Day 19 Cmax and AUC): slight accumulation
half-life ([1]; plasma, Day 1): ~15 h
half-life ([1]; plasma, Day 19): ~13 h
patients with increased plasma FGF23 level (FGF23): 4 patients
metabolizing enzymes (CYP 1A1/2): mainly metabolized by CYP 1A1/2 and flavin-containing monooxygenase

AUC Max [1, 7]: 12222 ng·h/mL
AUC Min [1, 7]: 6370 ng·h/mL
SMILES: Nc1ccn([C@@H]2O[C@H](CO)[C@@H](O)C2(F)F)c(=O)n1 [gemcitabine]
